{
  "source": "patent US11351154B2",
  "about": "“Molecular genetic approach to treatment and diagnosis of alcohol and drug dependence” (University of Virginia Patent Foundation, priority 2011, dated 2022)",
  "key": {"[1]": {"test_system": "individuals who take topiramate", "conditions": "cited from earlier work"}, "[2]": {"test_system": "subjects of the ondansetron clinical trial (251 subjects)", "assay": "CART decision-tree subgroup analysis of ondansetron treatment effect on percentage heavy drinking", "assay_type": "in vivo, human", "conditions": "for E(Y|T=1), Y=phd base90-mean(phdweek): T=1(ondansetron)", "source_text": "A decision tree is a structure that can be used to divide up a large collection of records into successively smaller sets of records by applying a sequence of simple decision rules. One advantage of decision tree is that the results can be easily interpreted. CART is a popular decision tree algorithm first published in Breiman et al 1984. CART starts by dividing data into 2 sub-groups (child nodes) that are homogeneous with respect to a particular target variable, in our case the target variable is the binary class label Z. By doing exhaustive search over all possible cutoffs for all possible candidate covariates, sub-groups are formed by identifying optimal split point for the optimal candidate covariate. Repeat the process recursively at each child node until one of the stopping criteria is met. In the end, CART prunes tree to smaller optimal size using cross-validation. After the final tree is determined, the class label (treatment) for “new subjects” is given by running them down the tree and identifying which terminal node they belong. The class label of the terminal node is formed by majority vote of cases in this node, that is if the proportion of class 1 in this node p>0.5, then the class label is 1, otherwise is 0. Let t denote the node, which is a region of the covariates space. A Split denoted by s on a numeric variable Xj take the form Xj<xji, where xji is a cut-off selected by trying all values of Xj in the data set as candidate split points. s splits the node t into left and right daughter nodes […]. The impurity function is used as a measure of node homogeneity. To calculate the impact of a split, compute increase in purity (or reduction in impurity) and choose a split that gives maximal value over all possible splits as the best splitter for node t. Gini criterion is the usual splitting criteria chosen by CART for categorical target. […] The full tree would not do the best job when applied to new dataset. The CART identifies candidate sub-trees through a process of repeated pruning. CART relies on a concept called adjusted error rate, AERα(T)=error rate(T)+α node count(T). This is a measure that increases each tree(T)'s misclassification rate on the training set by imposing a complexity penalty based on the number of final nodes in the tree. One can form a sequence of sub-trees of the full tree by varying the penalty value (cost complexity parameter), α and determining the tree that minimizes the adjusted error rate. After deleting the subjects with missing data, 251 subjects were included in the data analysis. Y=phd […]=(phd base90,Onage,[…], . . . , […]). There are total 21 genotypes. T=1(ondansetron) and T=0(placebo). The goal is to find a subgroup defined by X where the treatment effect is significant. After transforming this problem to a classification problem. CART was used to find the best subgroup with decision tree form."}, "[3]": {"test_system": "individuals in alcohol trials", "conditions": "naltrexone dose of 50 mg/day; cited from earlier work"}},
  "data": [
    {"smiles": "CC1(C)O[C@@H]2[C@@H](CO[C@@]3(COS(N)(=O)=O)OC(C)(C)O[C@@H]23)O1", "note": "[topiramate, 2,3:4,5-Bis-O-(1-methylethylidene)-beta-D-fructopyranose sulfamate]", "values": [
      {"measurement": "cognitive impairment reported, share of individuals", "setting": "[1]; general population", "value": 2.4, "unit": "%"},
      {"measurement": "occurrence rate of cognitive impairment", "setting": "[1]; substance abuse field", "value": "about 18.7%"}
    ]},
    {"smiles": "Cc1nccn1CC1CCc2c(c3ccccc3n2C)C1=O", "note": "(centres unmarked) [OND, 9-methyl-3-[(2-methyl-1H-imidazol-1-yl)methyl]-1,2,3,9-tetrahydrocarbazol-4-one]", "values": [
      {"measurement": "E(Y|T=1), Y=phd base90-mean(phdweek)", "setting": "[2]; overall sample, 251 subjects", "value": 32.1, "unit": "%"},
      {"measurement": "overall sample mean difference E(Y|T=1)−E(Y|T=0)", "setting": "[2]; overall sample, ondansetron minus placebo", "value": 0.2, "unit": "%"},
      {"measurement": "E(Y|T=1), Y=phd base90-mean(phdweek)", "setting": "[2]; subgroup gen1=I (rs150226=AA or AG), 42 subjects", "value": 50.9, "unit": "%"},
      {"measurement": "sample mean difference E(Y|T=1)−E(Y|T=0)", "setting": "[2]; subgroup gen1=I (rs150226=AA or AG), ondansetron minus placebo", "value": 28.7, "unit": "%"},
      {"measurement": "E(Y|T=1), Y=phd base90-mean(phdweek)", "setting": "[2]; subgroup gen2: rs1150226=GG, rs1176719=AA or AG, phd base90≥0.8663, 49 subjects", "value": 37.6, "unit": "%"},
      {"measurement": "sample mean difference E(Y|T=1)−E(Y|T=0)", "setting": "[2]; subgroup gen2: rs1150226=GG, rs1176719=AA or AG, phd base90≥0.8663, ondansetron minus placebo", "value": 15.0, "unit": "%"},
      {"measurement": "E(Y|T=1), Y=phd base90-mean(phdweek)", "setting": "[2]; subgroup gen (gen1 + gen2), 91 subjects", "value": 43.0, "unit": "%"},
      {"measurement": "sample mean difference E(Y|T=1)−E(Y|T=0)", "setting": "[2]; subgroup gen (gen1 + gen2), ondansetron minus placebo", "value": 20.6, "unit": "%"}
    ]},
    {"smiles": "Cl.O=C1CC[C@@]2(O)[C@H]3Cc4ccc(O)c5c4[C@@]2(CCN3CC2CC2)[C@H]1O5", "note": "[naltrexone, 17-(Cyclopropylmethyl)-4,5a-epoxy-3,14-dihydroxymorphinan-6-one hydrochloride]", "values": [
      {"measurement": "individuals unable to tolerate the dose", "setting": "[3]", "value": "about 15%"}
    ]}
  ]
}
